This passage reports IC50 results from US10745382B2 (BRISTOL-MYERS SQUIBB COMPANY, priority 2015, dated 2020).

The assay deals with T1, PD-1/PD-L1 (Homo sapiens, UniProt Q9NZQ7).
T1 construct: made in house; host or cells: HEK293T
Kind of assay: PD-1/PD-L1 Homogenous Time-Resolved Fluorescence (HTRF) binding assay. The settings on record: PD-L1-His 10 nM, PD-1-Ig 20 nM; value given as range class; read-out: Range or IC50. The essentials: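 Compounds are tested for blocking the PD-1/PD-L1 interaction in dPBS supplemented with 0.1% BSA and 0.05% (v/v) Tween-20. Tagged proteins are detected with Eu-cryptate anti-Ig and APC anti-His at 1 and 20 nM final.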
For orientation: Time-resolved FRET reads energy transfer from a long-lived donor to a nearby acceptor.

pIC50: −log10 of the molar value.

T1 sequence (Q9NZQ7 with tags, fused parts or gaps): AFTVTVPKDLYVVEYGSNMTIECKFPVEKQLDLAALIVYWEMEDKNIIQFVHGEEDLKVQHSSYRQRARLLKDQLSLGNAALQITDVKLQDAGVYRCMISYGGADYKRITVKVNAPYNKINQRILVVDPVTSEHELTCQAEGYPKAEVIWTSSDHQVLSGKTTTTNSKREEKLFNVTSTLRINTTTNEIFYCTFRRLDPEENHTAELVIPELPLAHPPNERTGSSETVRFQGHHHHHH

Regarding `COc1cc(/C=C/c2cccc(-c3cccc(OCCCN4CC[C@@H](O)C4)c3C)c2C)c(Cl)cc1CN1CCCC[C@H]1C(=O)O` [Example 4517, (S)-1-(5-chloro-4-((E)-2-(3′-(3-((R)-3-hydroxypyrrolidin-1-yl)propoxy)-2,2′-dimethyl-[1,1′-biphenyl]-3-yl)vinyl)-2-methoxybenzyl)piperidine-2-carboxylic Acid], the pIC50 is 8.00 to 9.68.

Regarding `COc1cc(CCc2cccc(-c3cccc(OCCCN4CC[C@@H](O)C4)c3C)c2C)c(Cl)cc1CN1CCCC[C@H]1C(=O)O` [Example 4518, (S)-1-(5-chloro-4-(2-(3′-(3-((R)-3-hydroxypyrrolidin-1-yl)propoxy)-2,2′-dimethyl-[1,1′-biphenyl]-3-yl)ethyl)-2-methoxybenzyl)piperidine-2-carboxylic Acid], the pIC50 is 8.00 to 9.68.

For the molecule `COc1cc(NC(=O)c2cccc(-c3cccc(OCCCN4CC[C@@H](O)C4)c3C)c2C)c(Cl)cc1C(=O)N1CCCC[C@H]1C(=O)O` [Example 4519, (S)-1-(5-chloro-4-(3′-(3-((R)-3-hydroxypyrrolidin-1-yl)propoxy)-2,2′-dimethyl-[1,1′-biphenyl]-3-ylcarboxamido)-2-methoxybenzoyl)piperidine-2-carboxylic Acid], the pIC50 was 5.70 to 7.00.

With `Cc1c(COc2cc(OCc3cc(F)cc(F)c3)c(CNC(C)(CO)CO)cc2Cl)cccc1-c1cccc(OCCCN2CC[C@@H](O)C2)c1C` [Example 4520, (R)-2-((5-chloro-2-((3,5-difluorobenzyl)oxy)-4-((3′-(3-(3-hydroxypyrrolidin-1-yl)propoxy)-2,2′-dimethyl-[1,1′-biphenyl]-3-yl)methoxy)benzyl)amino)-2-methylpropane-1,3-diol], the pIC50 is 8.00 to 9.68.

Take `Cc1c(COc2cc(OCc3cc(F)cc(F)c3)c(CN3CCCC[C@H]3C(=O)O)cc2Cl)cccc1-c1cccc(OCCCN2CC[C@@H](O)C2)c1C` [Example 4521, (S)-1-(5-chloro-2-((3,5-difluorobenzyl)oxy)-4-((3′-(3-((R)-3-hydroxypyrrolidin-1-yl)propoxy)-2,2′-dimethyl-[1,1′-biphenyl]-3-yl)methoxy)benzyl)piperidine-2-carboxylic Acid]: the pIC50 is 8.00 to 9.68.

For `Cc1c(COc2cc(OCc3cc(F)cc(F)c3)c(CO)cc2Cl)cccc1-c1cccc(OCCCN2CC[C@@H](O)C2)c1C` [Example 4522, (R)-1-(3-((3′-((2-chloro-5-((3,5-difluorobenzyl)oxy)-4-(hydroxymethyl)phenoxy)methyl)-2,2′-dimethyl-[1,1′-biphenyl]-3-yl)oxy)propyl)pyrrolidin-3-ol], the pIC50 is 7.00 to 8.00.

Turning to `Cc1cc(OCc2cccc(-c3cccc(OCCCN4CC[C@@H](O)C4)c3C)c2C)c(Cl)cc1CN1CCCC[C@H]1C(=O)O` [Example 4523, (S)-1-(5-chloro-4-((3′-(3-((R)-3-hydroxypyrrolidin-1-yl)propoxy)-2,2′-dimethyl-[1,1′-biphenyl]-3-yl)methoxy)-2-methylbenzyl)piperidine-2-carboxylic Acid], the pIC50 was 8.00 to 9.68.

Take `Cc1c(COc2ccc(CN3CCCC[C@H]3C(=O)O)c(C)c2Cl)cccc1-c1cccc(OCCCN2CC[C@@H](O)C2)c1C` [Example 4524, (S)-1-(3-chloro-4-((3′-(3-((R)-3-hydroxypyrrolidin-1-yl)propoxy)-2,2′-dimethyl-[1,1′-biphenyl]-3-yl)methoxy)-2-methylbenzyl)piperidine-2-carboxylic Acid]: the pIC50 was 7.00 to 8.00.

Turning to “tert-butyl (S)-3-(((3′-((2-chloro-5-((5-cyanopyridin-3-yl)methoxy)-4-(((1,3-dihydroxypropan-2-yl)amino)methyl)phenoxy)methyl)-2,2′-dimethyl-[1,1′-biphenyl]-3-yl)oxy)methyl)pyrrolidine-1-carboxylate [Example 2322]”, the pIC50 was 7.00 to 8.00.

As a reminder, the pIC50 is −log10 of the IC50, conventionally taken in molar units.
